Laboratory results from patent US20250195530A1, “POLQ INHIBITORS” (ASTRAZENECA AB, priority 2022, published 2025).

How the values were obtained:
DLD-1 BRCA2−/− cells = assay: Homologous recombination synthetic lethal inhibition of proliferation, DLD-1 BRCA2-/- (Cell Titre Glo 3D); type: cell-based; settings: Homo sapiens, DLD-1, 288 h, DLD-1 BRCA2−/− cells, 12 days; read-out: POLQ PD Prolif Lumin BRCA2 −/− mean pIC50 (converted)
Method in brief: (§1)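 Cells are seeded in RPMI 1640 (phenol red free, 10% FBS, GlutaMAX) onto pre-dosed compound (10 μM to 0.51 nM, three-fold). Plates are incubated at 37 °C, and medium plus compound are refreshed on day 6. Viability is read by CellTiter-Glo 3D at day 7 (DLD-1) or day 12 (DLD-1 BRCA2−/−), and the IC50 is fitted.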

DLD-1 cells = assay: Inhibition of proliferation, DLD-1 BRCA2 wt control (Cell Titre Glo 3D); type: cell-based; settings: Homo sapiens, DLD-1, 168 h, DLD-1 BRCA2 wt cells, 7 days; read-out: POLQ PD Prolif Lumin DLD1 mean pIC50 (converted)
Method in brief: as §1

Row | Structure (SMILES) | IC50 (DLD-1 cells) [nM] | IC50 (DLD-1 BRCA2−/− cells) [nM]
1 | COc1ncccc1-c1nc2c(OC3(C)CC3)ncnc2n1Cc1ccccc1 [Example N9, 9-benzyl-8-(2-methoxypyridin-3-yl)-6-(1-methylcyclopropoxy)-9H-purine] | > 10000 | 1260
2 | CC1(Oc2cccc3c2nc(-c2ccc(OCCN4CCNCC4)cc2Cl)n3Cc2ccccn2)CCC1 [Example P1, 2-(2-chloro-4-(2-(piperazin-1-yl)ethoxy)phenyl)-4-(1-methylcyclobutoxy)-1-(pyridin-2-ylmethyl)-1H-benzo[d]imidazole] | > 10000 | 1260
3 | CC1(Oc2cccc3c2nc(-c2ccc(OCCN4CCNCC4)cc2Cl)n3Cc2ccccc2)CCC1 [Example P2, 1-benzyl-2-(2-chloro-4-(2-(piperazin-1-yl)ethoxy)phenyl)-4-(1-methylcyclobutoxy)-1H-benzo[d]imidazole] | 2510 | 794
4 | CC1(Oc2ccnc3c2nc(-c2ccc(OCCN4CCNCC4)cc2Cl)n3Cc2ccccn2)CCC1 [Example P3, 2-(2-chloro-4-(2-(piperazin-1-yl)ethoxy)phenyl)-7-(1-methylcyclobutoxy)-3-(pyridin-2-ylmethyl)-3H-imidazo[4,5-b]pyridine] | > 10000 | 2000
5 | CC1(Oc2ccnc3c2nc(-c2ccc(OCCN4CCNCC4)cc2Cl)n3Cc2ccccc2)CCC1 [Example P4, 3-benzyl-2-(2-chloro-4-(2-(piperazin-1-yl)ethoxy)phenyl)-7-(1-methylcyclobutoxy)-3H-imidazo[4,5-b]pyridine] | 1260 | 316
6 | C#CC1(Oc2ncnc3c2nc(-c2ccc(OCCN4CCNCC4)cc2Cl)n3Cc2ccccc2)CC1 [Example Q1, 9-benzyl-8-(2-chloro-4-(2-(piperazin-1-yl)ethoxy)phenyl)-6-(1-ethynylcyclopropoxy)-9H-purine] | > 10000 | 316
7 | CCC1(Oc2ncnc3c2nc(-c2ccc(OCCN4CCNCC4)cc2Cl)n3Cc2ccccc2)CC1 [Example Q2, 9-benzyl-8-(2-chloro-4-(2-(piperazin-1-yl)ethoxy)phenyl)-6-(1-ethylcyclopropoxy)-9H-purine] | 2000 | 398
8 | C#CC1(Oc2ncnc3c2nc(-c2ccc(OCCN4CCNCC4)cc2Cl)n3Cc2ccccc2)CCC1 [Example Q3, 9-benzyl-8-(2-chloro-4-(2-(piperazin-1-yl)ethoxy)phenyl)-6-(1-ethynylcyclobutoxy)-9H-purine] | 5010 | 251
9 | Clc1cccc(Cn2c(-c3ccc(OCCN4CCNCC4)cc3Cl)nc3c(OC4CC4)ncnc32)c1 [Example Q4, 8-(2-chloro-4-(2-(piperazin-1-yl)ethoxy)phenyl)-9-(3-chlorobenzyl)-6-cyclopropoxy-9H-purine] | 2000 | 200
10 | N#CC1(Oc2ncnc3c2nc(-c2ccc(OCCN4CCNCC4)cc2Cl)n3Cc2cccc(Cl)c2)CC1 [Example Q5, 1-((8-(2-chloro-4-(2-(piperazin-1-yl)ethoxy)phenyl)-9-(3-chlorobenzyl)-9H-purin-6-yl)oxy)cyclopropane-1-carbonitrile] | 6310 | 158
11 | CC1(Oc2ncnc3c2nc(-c2ccc(OCCN4CC5CCC(C4)N5)cc2Cl)n3Cc2ccccc2)CC1 [Example R4, 8-(4-(2-(3,8-diazabicyclo[3.2.1]octan-3-yl)ethoxy)-2-chlorophenyl)-9-benzyl-6-(1-methylcyclopropoxy)-9H-purine] | 3160 | 126
12 | CC1(Oc2ncnc3c2nc(-c2ccc(OCCN4CC5CC(C4)N5)cc2Cl)n3Cc2ccccc2)CC1 [Example R5, 3-(2-(4-(9-benzyl-6-(1-methylcyclopropoxy)-9H-purin-8-yl)-3-chlorophenoxy)ethyl)-3,6-diazabicyclo[3.1.1]heptane] | 3980 | 100
13 | CC1(Oc2ncnc3c2nc(-c2ccc(OCCN4C5CNCC4C5)cc2Cl)n3Cc2ccccc2)CC1 [Example R15, 6-(2-(4-(9-benzyl-6-(1-methylcyclopropoxy)-9H-purin-8-yl)-3-chlorophenoxy)ethyl)-3,6-diazabicyclo[3.1.1]heptane] | 5010 | 501

Further lines, with some results ahead:

Row | IC50 (DLD-1 cells) [nM] | Structure (SMILES) | IC50 (DLD-1 BRCA2−/− cells) [nM]
14 | > 10000 | CC1(Oc2ncnc3c2nc(-c2ccc(OCCN4CC5(CC(O)C5)C4)cc2Cl)n3Cc2cc(Cl)ccn2)CC1 [Example R1, 2-(2-(3-chloro-4-(9-((4-chloropyridin-2-yl)methyl)-6-(1-methylcyclopropoxy)-9H-purin-8-yl)phenoxy)ethyl)-2-azaspiro[3.3]heptan-6-ol] | 126
15 | > 10000 | CC1(Oc2ncnc3c2nc(-c2ccc(OCCN4CC[C@@H](O)C4)cc2Cl)n3Cc2cc(Cl)ccn2)CC1 [Example R2, (R)-1-(2-(3-chloro-4-(9-((4-chloropyridin-2-yl)methyl)-6-(1-methylcyclopropoxy)-9H-purin-8-yl)phenoxy)ethyl)pyrrolidin-3-ol] | 126
16 | 3160 | C[C@H]1CN(CCOc2ccc(-c3nc4c(OC5(C)CC5)ncnc4n3Cc3ccccc3)c(Cl)c2)CCN1 [Example R3, (S)-9-benzyl-8-(2-chloro-4-(2-(3-methylpiperazin-1-yl)ethoxy)phenyl)-6-(1-methylcyclopropoxy)-9H-purine] | 63.1
17 | 3160 | C[C@@H]1CN(CCOc2ccc(-c3nc4c(OC5(C)CC5)ncnc4n3Cc3ccccc3)c(Cl)c2)CCN1 [Example R6, (R)-9-benzyl-8-(2-chloro-4-(2-(3-methylpiperazin-1-yl)ethoxy)phenyl)-6-(1-methylcyclopropoxy)-9H-purine] | 63.1
18 | 3160 | CC1(Oc2ncnc3c2nc(-c2ccc(OCCN4CCC[C@@H](O)C4)cc2Cl)n3Cc2ccccc2)CC1 [Example R7, (R)-1-(2-(4-(9-benzyl-6-(1-methylcyclopropoxy)-9H-purin-8-yl)-3-chlorophenoxy)ethyl)piperidin-3-ol] | 63.1
19 | 3980 | CC1(Oc2ncnc3c2nc(-c2ccc(OCCN4CC5(CNC(=O)C5)C4)cc2Cl)n3Cc2ccccc2)CC1 [Example R8, 2-(2-(4-(9-benzyl-6-(1-methylcyclopropoxy)-9H-purin-8-yl)-3-chlorophenoxy)ethyl)-2,6-diazaspiro[3.4]octan-7-one] | 251
20 | 1580 | C[C@@H]1CN(CCOc2ccc(-c3nc4c(OC5(C)CC5)ncnc4n3Cc3ccccc3)c(Cl)c2)C[C@H](C)N1 [Example R9, (cis)-9-benzyl-8-(2-chloro-4-(2-(3,5-dimethylpiperazin-1-yl)ethoxy)phenyl)-6-(1-methylcyclopropoxy)-9H-purine] | 50.1
21 | 2000 | C[C@H]1CNCCN1CCOc1ccc(-c2nc3c(OC4(C)CC4)ncnc3n2Cc2ccccc2)c(Cl)c1 [Example R10, (S)-9-benzyl-8-(2-chloro-4-(2-(2-methylpiperazin-1-yl)ethoxy)phenyl)-6-(1-methylcyclopropoxy)-9H-purine] | 126
22 | 2510 | C[C@@H]1CNCCN1CCOc1ccc(-c2nc3c(OC4(C)CC4)ncnc3n2Cc2ccccc2)c(Cl)c1 [Example R11, (R)-9-benzyl-8-(2-chloro-4-(2-(2-methylpiperazin-1-yl)ethoxy)phenyl)-6-(1-methylcyclopropoxy)-9H-purine] | 100
23 | 2510 | CC1(Oc2ncnc3c2nc(-c2ccc(OCCN4CCCNCC4=O)cc2Cl)n3Cc2ccccc2)CC1 [Example R12, 1-(2-(4-(9-benzyl-6-(1-methylcyclopropoxy)-9H-purin-8-yl)-3-chlorophenoxy)ethyl)-1,4-diazepan-2-one] | 100
24 | 1000 | CC1(Oc2ncnc3c2nc(-c2ccc(OCCN4CCNC5(CC5)C4)cc2Cl)n3Cc2ccccc2)CC1 [Example R17, 8-(4-(2-(4,7-diazaspiro[2.5]octan-7-yl)ethoxy)-2-chlorophenyl)-9-benzyl-6-(1-methylcyclopropoxy)-9H-purine] | 100
25 | 6310 | CC1(Oc2ncnc3c2nc(-c2ccc(OCCN4CCN[C@@H](CO)C4)cc2Cl)n3Cc2ccccc2)CC1 [Example R18, (R)-(4-(2-(4-(9-benzyl-6-(1-methylcyclopropoxy)-9H-purin-8-yl)-3-chlorophenoxy)ethyl)piperazin-2-yl)methanol] | 126
26 | 3980 | CC1(Oc2ncnc3c2nc(-c2ccc(OCCN4C[C@@H]5C[C@H]4CN5)cc2Cl)n3Cc2ccccc2)CC1 [Example R19, 8-(4-(2-((1S,4S)-2,5-diazabicyclo[2.2.1]heptan-2-yl)ethoxy)-2-chlorophenyl)-9-benzyl-6-(1-methylcyclopropoxy)-9H-purine] | 200
27 | 2510 | CC1(Oc2ncnc3c2nc(-c2ccc(OCCN4C[C@H]5C[C@@H]4CN5)cc2Cl)n3Cc2ccccc2)CC1 [Example R20, 8-(4-(2-((1R,4R)-2,5-diazabicyclo[2.2.1]heptan-2-yl)ethoxy)-2-chlorophenyl)-9-benzyl-6-(1-methylcyclopropoxy)-9H-purine] | 200
28 | 1580 | CC1(Oc2ncnc3c2nc(-c2ccc(OCCN4C[C@@H]5CC[C@H]4CN5)cc2Cl)n3Cc2ccccc2)CC1 [Example R21, (1S,4S)-2-(2-(4-(9-benzyl-6-(1-methylcyclopropoxy)-9H-purin-8-yl)-3-chlorophenoxy)ethyl)-2,5-diazabicyclo[2.2.2]octane] | 316
29 | 3160 | CC1(Oc2ncnc3c2nc(-c2ccc(OCCN4CCNCC45CC5)cc2Cl)n3Cc2ccccc2)CC1 [Example R22, 8-(4-(2-(4,7-diazaspiro[2.5]octan-4-yl)ethoxy)-2-chlorophenyl)-9-benzyl-6-(1-methylcyclopropoxy)-9H-purine] | 251
